Test results taken from ChEMBL document CHEMBL4387741, “Optimization of novel reversible Bruton's tyrosine kinase inhibitors identified using Tethering-fragment-based screens” (Bioorg Med Chem, 2019).

What was measured:
[1] = target: Protein kinase C theta type (Homo sapiens) (UniProt Q04759); assay: Inhibition of wild-type human partial length PRKCQ (L350 to S706 residues) expressed in bacterial expression system at 1 uM by Kinomescan method relative to control
[2] = target: Serine/threonine-protein kinase 16 (Homo sapiens) (UniProt O75716); assay: Inhibition of wild-type human partial length STK16 (G11 to I305 residues) expressed in bacterial expression system at 1 uM by Kinomescan method relative to control
Sequence of Serine/threonine-protein kinase 16 (Homo sapiens) (O75716 whole entry, the tested form may be a part): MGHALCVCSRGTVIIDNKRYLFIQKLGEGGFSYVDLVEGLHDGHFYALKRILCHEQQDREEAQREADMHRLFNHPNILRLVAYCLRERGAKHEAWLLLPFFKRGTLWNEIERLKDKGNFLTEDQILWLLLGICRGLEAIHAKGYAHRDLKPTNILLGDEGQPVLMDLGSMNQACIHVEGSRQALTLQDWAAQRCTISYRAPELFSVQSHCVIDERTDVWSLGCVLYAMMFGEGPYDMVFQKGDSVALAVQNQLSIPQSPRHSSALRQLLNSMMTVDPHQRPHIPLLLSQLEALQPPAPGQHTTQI

[3] = target: Receptor-interacting serine/threonine-protein kinase 4 (Homo sapiens) (UniProt P57078); assay: Inhibition of wild-type human partial length RIPK4 (M1 to V303 residues) expressed in mammalian expression system at 1 uM by Kinomescan method relative to control
[4] = target: Platelet-derived growth factor receptor beta (Homo sapiens) (UniProt P09619); assay: Inhibition of wild-type human partial length PDGFRB (V582 to Y1009 residues) expressed in bacterial expression system at 1 uM by Kinomescan method relative to control
Sequence of Platelet-derived growth factor receptor beta (Homo sapiens) (P09619 whole entry, the tested form may be a part): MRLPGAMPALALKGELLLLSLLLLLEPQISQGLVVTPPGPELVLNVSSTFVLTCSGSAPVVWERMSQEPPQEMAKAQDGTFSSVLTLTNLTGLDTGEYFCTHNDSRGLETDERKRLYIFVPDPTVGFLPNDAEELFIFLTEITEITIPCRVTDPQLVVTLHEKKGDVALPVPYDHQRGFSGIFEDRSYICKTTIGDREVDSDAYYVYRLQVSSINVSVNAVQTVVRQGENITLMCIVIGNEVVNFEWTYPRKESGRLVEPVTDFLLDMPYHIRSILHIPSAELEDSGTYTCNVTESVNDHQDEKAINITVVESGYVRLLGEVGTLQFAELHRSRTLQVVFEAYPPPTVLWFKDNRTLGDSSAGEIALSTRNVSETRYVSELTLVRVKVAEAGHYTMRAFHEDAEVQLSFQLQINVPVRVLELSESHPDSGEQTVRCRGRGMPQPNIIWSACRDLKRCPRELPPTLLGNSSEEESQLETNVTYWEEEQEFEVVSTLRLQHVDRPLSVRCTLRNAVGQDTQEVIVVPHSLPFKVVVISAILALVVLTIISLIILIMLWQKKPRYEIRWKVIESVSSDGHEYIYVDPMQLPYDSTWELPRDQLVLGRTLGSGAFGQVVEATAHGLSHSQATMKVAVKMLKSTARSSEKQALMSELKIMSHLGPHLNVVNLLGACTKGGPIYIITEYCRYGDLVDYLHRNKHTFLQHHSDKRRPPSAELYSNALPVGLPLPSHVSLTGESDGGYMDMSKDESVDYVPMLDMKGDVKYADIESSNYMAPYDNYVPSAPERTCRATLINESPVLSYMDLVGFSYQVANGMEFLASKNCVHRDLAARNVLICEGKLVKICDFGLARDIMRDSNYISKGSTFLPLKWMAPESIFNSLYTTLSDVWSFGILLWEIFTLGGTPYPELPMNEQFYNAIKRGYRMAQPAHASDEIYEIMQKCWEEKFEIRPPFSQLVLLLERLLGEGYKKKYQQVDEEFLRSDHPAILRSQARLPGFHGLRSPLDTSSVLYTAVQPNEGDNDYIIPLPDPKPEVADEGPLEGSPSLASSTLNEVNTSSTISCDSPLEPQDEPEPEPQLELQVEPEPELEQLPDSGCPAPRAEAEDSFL

[5] = target: Protein-tyrosine kinase 6 (Homo sapiens) (UniProt Q13882); assay: Inhibition of wild-type human partial length BRK (L166 to T451 residues) expressed in bacterial expression system at 1 uM by Kinomescan method relative to control
[6] = target: Tyrosine-protein kinase HCK (Homo sapiens) (UniProt P08631); assay: Inhibition of wild-type human full length HCK (M22 to P526 residues) expressed in bacterial expression system at 1 uM by Kinomescan method relative to control
Sequence of Tyrosine-protein kinase HCK (Homo sapiens) (P08631 2-526 limits assumed): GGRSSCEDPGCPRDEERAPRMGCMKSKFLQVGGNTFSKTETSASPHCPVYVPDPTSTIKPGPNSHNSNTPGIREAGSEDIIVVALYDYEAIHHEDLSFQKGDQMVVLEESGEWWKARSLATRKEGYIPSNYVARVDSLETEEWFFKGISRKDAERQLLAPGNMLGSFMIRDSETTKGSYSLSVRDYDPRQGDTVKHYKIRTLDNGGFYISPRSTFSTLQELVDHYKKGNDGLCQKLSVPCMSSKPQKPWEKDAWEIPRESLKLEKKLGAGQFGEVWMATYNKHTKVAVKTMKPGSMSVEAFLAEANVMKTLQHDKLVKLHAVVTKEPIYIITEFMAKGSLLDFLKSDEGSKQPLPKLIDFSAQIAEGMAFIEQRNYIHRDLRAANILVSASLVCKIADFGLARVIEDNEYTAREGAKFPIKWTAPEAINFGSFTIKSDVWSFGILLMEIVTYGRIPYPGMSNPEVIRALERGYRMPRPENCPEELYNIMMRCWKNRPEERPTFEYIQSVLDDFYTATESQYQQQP

[7] = target: G protein-coupled receptor kinase 4 (Homo sapiens) (UniProt P32298); assay: Inhibition of wild-type human full length GRK4 (M1 to C578 residues) expressed in bacterial expression system at 1 uM by Kinomescan method relative to control
[8] = target: Muscle, skeletal receptor tyrosine-protein kinase (Homo sapiens) (UniProt O15146); assay: Inhibition of wild-type human partial length MUSK (M553 to V869 residues) expressed in bacterial expression system at 1 uM by Kinomescan method relative to control
[9] = target: Proto-oncogene tyrosine-protein kinase Src (Homo sapiens) (UniProt P12931); assay: Inhibition of wild-type human partial length SRC (L240 to L536 residues) expressed in bacterial expression system at 1 uM by Kinomescan method relative to control
[10] = target: Tyrosine-protein kinase JAK2 (Homo sapiens) (UniProt O60674); assay: Inhibition of wild-type human partial length JAK2 JH1 catalytic domain (A829 to G1132 residues) expressed in mammalian expression system at 1 uM by Kinomescan method relative to control
[11] = target: Mitogen-activated protein kinase kinase kinase 1 (Homo sapiens) (UniProt Q13233); assay: Inhibition of wild-type human partial length MAP3K1 (L1202 to W1512 residues) expressed in mammalian expression system at 1 uM by Kinomescan method relative to control
Sequence of Mitogen-activated protein kinase kinase kinase 1 (Homo sapiens) (Q13233 whole entry, the tested form may be a part): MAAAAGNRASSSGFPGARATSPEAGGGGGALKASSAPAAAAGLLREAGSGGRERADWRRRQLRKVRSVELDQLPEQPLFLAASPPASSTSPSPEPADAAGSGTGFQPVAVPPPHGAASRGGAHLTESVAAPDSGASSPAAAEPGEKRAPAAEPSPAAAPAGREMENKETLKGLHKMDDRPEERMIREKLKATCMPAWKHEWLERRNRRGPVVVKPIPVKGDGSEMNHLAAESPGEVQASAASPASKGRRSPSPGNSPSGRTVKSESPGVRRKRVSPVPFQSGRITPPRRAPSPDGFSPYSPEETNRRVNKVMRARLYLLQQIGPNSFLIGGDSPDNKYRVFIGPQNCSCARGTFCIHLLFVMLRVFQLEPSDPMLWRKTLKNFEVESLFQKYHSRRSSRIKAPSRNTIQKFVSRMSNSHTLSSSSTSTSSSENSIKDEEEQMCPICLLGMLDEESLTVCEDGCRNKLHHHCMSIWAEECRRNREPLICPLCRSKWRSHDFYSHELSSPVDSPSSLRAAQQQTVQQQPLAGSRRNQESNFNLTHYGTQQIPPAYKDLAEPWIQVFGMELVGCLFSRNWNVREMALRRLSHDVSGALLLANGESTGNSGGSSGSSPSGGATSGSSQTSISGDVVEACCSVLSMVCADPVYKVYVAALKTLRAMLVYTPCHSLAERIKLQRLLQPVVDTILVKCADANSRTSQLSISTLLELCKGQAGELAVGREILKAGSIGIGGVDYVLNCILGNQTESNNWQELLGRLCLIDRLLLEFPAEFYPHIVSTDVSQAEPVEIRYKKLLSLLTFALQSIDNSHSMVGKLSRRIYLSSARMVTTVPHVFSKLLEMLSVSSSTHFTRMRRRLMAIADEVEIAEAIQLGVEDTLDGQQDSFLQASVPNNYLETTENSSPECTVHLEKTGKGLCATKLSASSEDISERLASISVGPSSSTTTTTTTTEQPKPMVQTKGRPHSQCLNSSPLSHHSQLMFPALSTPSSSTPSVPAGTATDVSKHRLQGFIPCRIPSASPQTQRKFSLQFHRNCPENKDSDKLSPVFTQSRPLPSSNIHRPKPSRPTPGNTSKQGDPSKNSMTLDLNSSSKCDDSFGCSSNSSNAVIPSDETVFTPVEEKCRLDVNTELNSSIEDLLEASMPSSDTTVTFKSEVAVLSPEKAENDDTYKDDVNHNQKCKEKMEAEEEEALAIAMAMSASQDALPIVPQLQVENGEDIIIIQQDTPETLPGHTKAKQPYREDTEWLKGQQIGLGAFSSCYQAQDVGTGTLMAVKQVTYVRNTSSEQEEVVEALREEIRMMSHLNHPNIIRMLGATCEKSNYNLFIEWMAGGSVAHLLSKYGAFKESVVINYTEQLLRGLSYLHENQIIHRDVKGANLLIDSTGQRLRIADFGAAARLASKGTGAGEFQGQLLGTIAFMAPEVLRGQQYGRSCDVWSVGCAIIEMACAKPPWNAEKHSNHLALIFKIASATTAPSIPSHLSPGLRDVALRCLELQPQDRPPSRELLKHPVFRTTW

[12] = target: Mitogen-activated protein kinase 6 (Homo sapiens) (UniProt Q16659); assay: Inhibition of wild-type human partial length ERK3 (M1 to P413 residues) expressed in bacterial expression system at 1 uM by Kinomescan method relative to control
[13] = test system: Mast/stem cell growth factor receptor Kit (Homo sapiens), P10721 [D816H]; assay: Inhibition of human partial length KIT D816H mutant (I571 to D952 residues) expressed in mammalian expression system at 1 uM by Kinomescan method relative to control
[14] = target: Tyrosine-protein kinase Lyn (Homo sapiens) (UniProt P07948); assay: Inhibition of wild-type human partial length LYN (C219 to Q511 residues) expressed in bacterial expression system at 1 uM by Kinomescan method relative to control
[15] = target: Activin receptor type-1B (Homo sapiens) (UniProt P36896); assay: Inhibition of wild-type human ACVR1B (S187 to I505 residues) expressed in bacterial expression system at 1 uM by Kinomescan method relative to control
[16] = target: Insulin-like growth factor 1 receptor (Homo sapiens) (UniProt P08069); assay: Inhibition of wild-type human partial length IGF1R (L972 to D1294 residues) expressed in bacterial expression system at 1 uM by Kinomescan method relative to control
[17] = target: Serine/threonine-protein kinase D1 (Homo sapiens) (UniProt Q15139); assay: Inhibition of wild-type human partial length PRKD1 (G551 to E870 residues) expressed in bacterial expression system at 1 uM by Kinomescan method relative to control
[18] = target: Rhodopsin kinase GRK7 (Homo sapiens) (UniProt Q8WTQ7); assay: Inhibition of wild-type human full length GRK7 (M1 to L553 residues) expressed in mammalian expression system at 10 uM by Kinomescan method relative to control
[19] = test system: Epidermal growth factor receptor (Homo sapiens), P00533 [L861Q]; assay: Inhibition of human partial length EGFR L861Q mutant (R669 to V1011 residues) expressed in bacterial expression system at 10 uM by Kinomescan method relative to control
[20] = target: Mitogen-activated protein kinase kinase kinase 10 (Homo sapiens) (UniProt Q02779); assay: Inhibition of wild-type human partial length MLK2 (V52 to W380 residues) expressed in bacterial expression system at 10 uM by Kinomescan method relative to control
[21] = test system: Proto-oncogene tyrosine-protein kinase receptor Ret (Homo sapiens), P07949 [M918T]; assay: Inhibition of human partial length RET M918T mutant (E713 to D1014 residues) expressed in bacterial expression system at 10 uM by Kinomescan method relative to control
[22] = target: Serine/threonine-protein kinase Nek4 (Homo sapiens) (UniProt P51957); assay: Inhibition of wild-type human full length NEK4 (M1 to F841 residues) expressed in mammalian expression system at 10 uM by Kinomescan method relative to control
[23] = target: Phosphatidylinositol 4-kinase beta (Homo sapiens) (UniProt Q9UBF8); assay: Inhibition of wild-type human full length PIK4CB (M1 to M828 residues) expressed in mammalian expression system at 10 uM by Kinomescan method relative to control
[24] = target: Tyrosine-protein kinase Blk (Homo sapiens) (UniProt P51451); assay: Inhibition of wild-type human partial length BLK (G211 to L503 residues) expressed in bacterial expression system at 10 uM by Kinomescan method relative to control
[25] = target: Serine/threonine-protein kinase tousled-like 1 (Homo sapiens) (UniProt Q9UKI8); assay: Inhibition of wild-type human partial length TLK1 (K447 to A754 residues) expressed in bacterial expression system at 10 uM by Kinomescan method relative to control
[26] = target: Mitogen-activated protein kinase 13 (Homo sapiens) (UniProt O15264); assay: Inhibition of wild-type human full length p38-delta (M1 to L365 residues) expressed in bacterial expression system at 10 uM by Kinomescan method relative to control
[27] = target: Serine/threonine-protein kinase TNNI3K (Homo sapiens) (UniProt Q59H18); assay: Inhibition of wild-type human full length TNNI3K (M1 to S835 residues) expressed in bacterial expression system at 10 uM by Kinomescan method relative to control
Sequence of Serine/threonine-protein kinase TNNI3K (Homo sapiens) (Q59H18 whole entry, the tested form may be a part): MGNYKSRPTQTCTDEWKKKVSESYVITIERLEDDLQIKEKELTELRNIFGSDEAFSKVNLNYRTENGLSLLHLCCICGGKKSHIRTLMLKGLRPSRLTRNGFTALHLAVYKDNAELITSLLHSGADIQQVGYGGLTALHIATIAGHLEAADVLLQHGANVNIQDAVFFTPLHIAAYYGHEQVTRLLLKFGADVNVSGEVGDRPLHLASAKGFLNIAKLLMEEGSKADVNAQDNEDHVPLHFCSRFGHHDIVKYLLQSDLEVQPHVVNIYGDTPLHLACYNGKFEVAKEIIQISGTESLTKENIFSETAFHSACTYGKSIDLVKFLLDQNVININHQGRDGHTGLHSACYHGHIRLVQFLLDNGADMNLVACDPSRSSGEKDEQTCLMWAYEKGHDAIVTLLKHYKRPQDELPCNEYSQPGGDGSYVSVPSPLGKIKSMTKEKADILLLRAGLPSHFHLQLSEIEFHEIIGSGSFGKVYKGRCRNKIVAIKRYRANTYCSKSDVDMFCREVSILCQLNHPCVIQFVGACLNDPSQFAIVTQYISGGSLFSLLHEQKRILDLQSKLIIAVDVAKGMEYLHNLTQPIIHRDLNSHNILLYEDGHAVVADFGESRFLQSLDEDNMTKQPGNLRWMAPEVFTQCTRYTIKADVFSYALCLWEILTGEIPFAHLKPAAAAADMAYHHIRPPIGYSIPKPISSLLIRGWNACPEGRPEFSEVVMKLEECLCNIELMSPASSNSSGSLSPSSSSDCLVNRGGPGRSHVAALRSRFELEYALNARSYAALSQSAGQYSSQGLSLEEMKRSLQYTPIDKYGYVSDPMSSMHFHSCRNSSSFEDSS

Sequence of Protein kinase C theta type (Homo sapiens) (Q04759 whole entry, looked up, the tested form may be a part): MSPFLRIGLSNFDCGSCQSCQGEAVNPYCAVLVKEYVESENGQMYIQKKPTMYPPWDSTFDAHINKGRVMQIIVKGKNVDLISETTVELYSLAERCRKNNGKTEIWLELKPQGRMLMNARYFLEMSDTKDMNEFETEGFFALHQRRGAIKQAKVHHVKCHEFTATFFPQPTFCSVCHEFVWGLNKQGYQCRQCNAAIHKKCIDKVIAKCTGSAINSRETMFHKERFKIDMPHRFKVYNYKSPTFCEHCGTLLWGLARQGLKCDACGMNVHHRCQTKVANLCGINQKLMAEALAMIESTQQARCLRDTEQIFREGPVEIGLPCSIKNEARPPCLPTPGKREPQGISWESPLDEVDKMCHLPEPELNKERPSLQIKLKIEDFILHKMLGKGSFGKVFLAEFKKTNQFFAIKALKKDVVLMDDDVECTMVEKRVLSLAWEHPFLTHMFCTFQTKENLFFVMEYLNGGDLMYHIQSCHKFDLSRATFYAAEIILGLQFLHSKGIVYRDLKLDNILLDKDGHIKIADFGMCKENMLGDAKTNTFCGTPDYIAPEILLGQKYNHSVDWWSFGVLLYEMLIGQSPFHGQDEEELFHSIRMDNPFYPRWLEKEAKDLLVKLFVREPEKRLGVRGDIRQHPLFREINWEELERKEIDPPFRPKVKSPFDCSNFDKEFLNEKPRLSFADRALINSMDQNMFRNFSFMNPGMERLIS

SMILES: O=C(Nc1cccc([C@@H]2CN(c3ncnc4[nH]ccc34)CCN2CCO)c1)Nc1c(F)cccc1N1CCCC1
- inhibition [1]: 95%
- inhibition [2]: 82%
- inhibition [3]: 80%
- inhibition [4]: 42%
- inhibition [5]: 99%
- inhibition [6]: 76%
- inhibition [7]: 66%
- inhibition [8]: 100%
- inhibition [9]: 71%
- inhibition [10]: 0%
- inhibition [11]: 70%
- inhibition [12]: 100%
- inhibition [13]: 18%
- inhibition [14]: 72%
- inhibition [15]: 83%
- inhibition [16]: 100%
- inhibition [17]: 100%

SMILES: O=C(Nc1cccc([C@H]2CCCN(c3ncnc4[nH]ccc34)C2)c1)Nc1ccccc1N1CCCC1
- inhibition [18]: 80%
- inhibition [19]: 85%
- inhibition [20]: 100%
- inhibition [21]: 0%
- inhibition [22]: 87%
- inhibition [23]: 89%
- inhibition [24]: 43%
- inhibition [25]: 78%
- inhibition [26]: 100%
- inhibition [27]: 100%
